According to patent publication US20260317324A1, “BIFUNCTIONAL COMPOUNDS FOR DEGRADING BRAF VIA UBIQUITIN PROTEOSOME PATHWAY” (Nurix Therapeutics, Inc., priority 2023, published 2026):

Legend:
Type in all cases: cell-based
[1] = target: T1, BRAF V600E (Homo sapiens, UniProt P15056, V600E); test: BRAF HiBiT degradation assay, C-terminal HiBiT-tagged BRAF V600E A375 cells (clone 1F10), Nano-Glo HiBiT Lytic assay; conditions: for Dmax: A-375
T1 construct: endogenous C-terminal HiBiT fusion tag on BRAF V600E allele; endogenous in cells; host or cells: A375 clone 1F10 (CRISPR-Cas9 knock-in of the HiBiT tag; parental A375 from ATCC)
Procedure, shortened: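 Steps: seed HiBiT-tagged A375 clone 1F10 cells; incubate 24 h, 37 °C, 5% CO2; add compound (11 half-log points from 1 μM, 0.2% DMSO); lyse with HiBiT detection reagent plus LgBiT for 10 min; read luminescence; fit % protein remaining against concentration.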

[2] = target: T2, BRAF G466V (Homo sapiens, UniProt P15056, G466V); test: BRAF HiBiT degradation assay, C-terminal HiBiT-tagged BRAF G466V overexpressed in HCT-116 BRAF−/− cells (clone 8), Nano-Glo HiBiT Lytic assay
T2 construct: Horizon Discovery (HCT-116 BRAF−/− cells); host or cells: HCT-116 BRAF−/− cells, clone 8, lentiviral transduction
Procedure, shortened: (§1)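 We quantified degradation of the C-terminally HiBiT-tagged, overexpressed mutant by lytic luminescence, normalizing to DMSO-treated cells with wild-type HCT-116 background subtracted. Dose series ran from 1 μM to 0.01 nM at 0.2% DMSO. Observed Dmax is % degraded at maximal effect.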

[3] = target: T3, BRAF D594G (Homo sapiens, UniProt P15056, D594G); test: BRAF HiBiT degradation assay, C-terminal HiBiT-tagged BRAF D594G overexpressed in HCT-116 BRAF−/− cells (clone 63), Nano-Glo HiBiT Lytic assay
T3 construct: Horizon Discovery (HCT-116 BRAF−/− cells); host or cells: HCT-116 BRAF−/− cells, clone 63, lentiviral transduction
Procedure, shortened: as §1

[4] = target: T4, BRAF G469A (Homo sapiens, UniProt P15056, G469A); test: BRAF HiBiT degradation assay, C-terminal HiBiT-tagged BRAF G469A overexpressed in HCT-116 BRAF−/− cells (clone 34), Nano-Glo HiBiT Lytic assay
T4 construct: Horizon Discovery (HCT-116 BRAF−/− cells); host or cells: HCT-116 BRAF−/− cells, clone 34, lentiviral transduction
Procedure, shortened: as §1

[5] = A375 (BRAF V600E, Class 1), DC50 at 50% degradation
[6] = A375 (BRAF V600E, Class 1), observed Dmax, % protein degraded relative to DMSO control
[7] = BRAF G466V (Class 3), HCT-116 BRAF−/− cells, DC50 at 50% degradation
[8] = BRAF G466V (Class 3), HCT-116 BRAF−/− cells, observed Dmax relative to DMSO control
[9] = BRAF D594G (Class 3), HCT-116 BRAF−/− cells, DC50 at 50% degradation
[10] = BRAF D594G (Class 3), HCT-116 BRAF−/− cells, observed Dmax relative to DMSO control
[11] = BRAF G469A (Class 2), HCT-116 BRAF−/− cells, DC50 at 50% degradation
[12] = BRAF G469A (Class 2), HCT-116 BRAF−/− cells, observed Dmax relative to DMSO control
[13] = A375 (BRAF V600E), DC50 at 50%: fitted conc. at Y=50
[14] = A375 (BRAF V600E), percentage protein degraded at maximal compound effect relative to DMSO
[15] = BRAF G466V, DC50 at 50%: fitted conc. at Y=50
[16] = HCT-116, BRAF G466V, percentage protein degraded at maximal compound effect relative to DMSO
[17] = BRAF D594G, DC50 at 50%: fitted conc. at Y=50
[18] = HCT-116, BRAF D594G, percentage protein degraded at maximal compound effect relative to DMSO
[19] = Class 2, BRAF G469A, DC50 at 50%: fitted conc. at Y=50
[20] = HCT-116, Class 2, BRAF G469A, percentage protein degraded at maximal compound effect relative to DMSO

T3 sequence (P15056 whole entry D594G): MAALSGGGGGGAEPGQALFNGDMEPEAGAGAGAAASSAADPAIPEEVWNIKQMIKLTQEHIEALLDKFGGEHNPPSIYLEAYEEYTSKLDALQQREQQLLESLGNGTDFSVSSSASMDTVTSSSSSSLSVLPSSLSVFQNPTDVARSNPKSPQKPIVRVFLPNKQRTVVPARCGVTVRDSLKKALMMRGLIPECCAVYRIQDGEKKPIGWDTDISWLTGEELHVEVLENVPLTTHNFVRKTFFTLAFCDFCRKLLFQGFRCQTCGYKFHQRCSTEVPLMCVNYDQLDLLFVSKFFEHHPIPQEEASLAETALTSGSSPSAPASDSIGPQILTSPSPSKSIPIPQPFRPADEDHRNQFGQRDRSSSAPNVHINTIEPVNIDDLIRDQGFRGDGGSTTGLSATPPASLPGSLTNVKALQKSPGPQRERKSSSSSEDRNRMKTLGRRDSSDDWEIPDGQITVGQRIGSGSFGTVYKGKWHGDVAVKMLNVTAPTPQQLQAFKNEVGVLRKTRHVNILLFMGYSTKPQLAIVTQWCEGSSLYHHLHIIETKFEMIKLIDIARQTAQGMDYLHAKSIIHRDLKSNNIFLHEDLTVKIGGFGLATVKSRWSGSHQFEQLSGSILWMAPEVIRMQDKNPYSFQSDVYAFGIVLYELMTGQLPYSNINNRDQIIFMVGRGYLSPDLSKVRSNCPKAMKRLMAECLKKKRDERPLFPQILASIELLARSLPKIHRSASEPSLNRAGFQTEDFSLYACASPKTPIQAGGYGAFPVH
T1 sequence (P15056 whole entry V600E, the tested form may be a part): as the sequence (P15056 whole entry D594G) above, with G594D, V600E counted along it
T2 sequence (P15056 whole entry G466V): as the sequence (P15056 whole entry D594G) above, with G466V, G594D counted along it
T4 sequence (P15056 whole entry G469A): as the sequence (P15056 whole entry D594G) above, with G469A, G594D counted along it

Compound	DC50 [1, 5]	Dmax [1, 6]	DC50 [2, 7]	Dmax [2, 8]	DC50 [3, 9]	Dmax [3, 10]	DC50 [4, 11]	Dmax [4, 12]	DC50 [1, 13]	Dmax [1, 14]	DC50 [2, 15]	Dmax [2, 16]	DC50 [3, 17]	Dmax [3, 18]	DC50 [4, 19]	Dmax [4, 20]
O=C1CCC(c2ccc(N3CCC(CN4CCN(c5ccc(-n6cc(-c7cc(Cl)cc(NS(=O)(=O)N8CCCC8)c7F)c(-c7ccncc7)n6)cc5)CC4)CC3)c(F)c2F)C(=O)N1 (racemic) [Compound 385, Rac-N-{5-chloro-3-[1-(4-{4-[(1-{4-[(3R)-2,6-dioxopiperidin-3-yl]-2,3-difluorophenyl}piperidin-4-yl)methyl]piperazin-1-yl}phenyl)-3-(pyridin-4-yl)-1H-pyrazol-4-yl]-2-fluorophenyl}pyrrolidine-1-sulfonamide]	10 to 50 nM	> 70%	< 10 nM	> 70%	< 10 nM	30 to 70%	50 to 500 nM	30 to 70%	–	–	–	–	–	–	–	–
O=C1CCC(c2cc(F)c(N3CCC(CN4CCN(c5ccc(-n6cc(-c7cc(Cl)cc(NS(=O)(=O)N8CCCC8)c7F)c(-c7ccncc7)n6)cc5)CC4)CC3)cc2F)C(=O)N1 (racemic) [Compound 386, Rac-N-{5-chloro-3-[1-(4-{4-[(1-{4-[(3R)-2,6-dioxopiperidin-3-yl]-2,5-difluorophenyl}piperidin-4-yl)methyl]piperazin-1-yl}phenyl)-3-(pyridin-4-yl)-1H-pyrazol-4-yl]-2-fluorophenyl}pyrrolidine-1-sulfonamide]	10 to 50 nM	> 70%	10 to 50 nM	> 70%	10 to 50 nM	30 to 70%	50 to 500 nM	30 to 70%	–	–	–	–	–	–	–	–
O=C1CCC(c2c(F)cc(N3CCC(CN4CCN(c5ccc(-n6cc(-c7cc(Cl)cc(NS(=O)(=O)N8CCCC8)c7F)c(-c7ccncc7)n6)cc5)CC4)CC3)cc2F)C(=O)N1 (racemic) [Compound 387, Rac-N-{5-chloro-3-[1-(4-{4-[(1-{4-[(3R)-2,6-dioxopiperidin-3-yl]-3,5-difluorophenyl}piperidin-4-yl)methyl]piperazin-1-yl}phenyl)-3-(pyridin-4-yl)-1H-pyrazol-4-yl]-2-fluorophenyl}pyrrolidine-1-sulfonamide]	10 to 50 nM	> 70%	< 10 nM	> 70%	< 10 nM	30 to 70%	10 to 50 nM	30 to 70%	–	–	–	–	–	–	–	–
CCCS(=O)(=O)Nc1cccc(-c2cn(-c3ccc(N4CCN(CC5CCN(c6ccc([C@H]7CCC(=O)NC7=O)cn6)CC5)CC4)cc3)nc2-c2ccncc2)c1F [Compound 2, N-{3-[1-(4-{4-[(1-{5-[(3R)-2,6-dioxopiperidin-3-yl]pyridin-2-yl}piperidin-4-yl)methyl]piperazin-1-yl}phenyl)-3-(pyridin-4-yl)-1H-pyrazol-4-yl]-2-fluorophenyl}propane-1-sulfonamide]	–	–	–	–	–	–	–	–	50 to 500 nM	> 70%	10 to 50 nM	30 to 70%	10 to 50 nM	30 to 70%	10 to 50 nM	30 to 70%
CCCS(=O)(=O)Nc1cccc(-c2cn(-c3ccc(N4CCN(CC5CCN(c6ccc([C@@H]7CCC(=O)NC7=O)cc6)CC5)CC4)nc3)nc2-c2ccncc2)c1F [Compound 4, N-{3-[1-(6-{4-[(1-{4-[(3S)-2,6-dioxopiperidin-3-yl]phenyl}piperidin-4-yl)methyl]piperazin-1-yl}pyridin-3-yl)-3-(pyridin-4-yl)-1H-pyrazol-4-yl]-2-fluorophenyl}propane-1-sulfonamide]	–	–	–	–	–	–	–	–	10 to 50 nM	> 70%	10 to 50 nM	30 to 70%	> 500 nM	30 to 70%	> 500 nM	< 30%
CCCS(=O)(=O)Nc1cccc(-c2cn(-c3ccc(N4CCN(CC5CCN(c6ccc([C@@H]7CCC(=O)NC7=O)cc6)CC5)CC4)cc3)nc2-c2ccncc2)c1F [Compound 10, N-{3-[1-(4-{4-[(1-{4-[(3S)-2,6-dioxopiperidin-3-yl]phenyl}piperidin-4-yl)methyl]piperazin-1-yl}phenyl)-3-(pyridin-4-yl)-1H-pyrazol-4-yl]-2-fluorophenyl}propane-1-sulfonamide]	–	–	–	–	–	–	–	–	10 to 50 nM	> 70%	10 to 50 nM	30 to 70%	> 500 nM	30 to 70%	> 500 nM	30 to 70%
CCCS(=O)(=O)Nc1cccc(-c2cn(-c3ccc(C4CCN(CC5CCN(c6ccc([C@@H]7CCC(=O)NC7=O)cc6)CC5)CC4)cc3)nc2-c2ccncc2)c1F [Compound 15, N-{3-[1-(4-{1-[(1-{4-[(3S)-2,6-dioxopiperidin-3-yl]phenyl}piperidin-4-yl)methyl]piperidin-4-yl}phenyl)-3-(pyridin-4-yl)-1H-pyrazol-4-yl]-2-fluorophenyl}propane-1-sulfonamide]	–	–	–	–	–	–	–	–	10 to 50 nM	> 70%	10 to 50 nM	30 to 70%	> 500 nM	30 to 70%	> 500 nM	< 30%
CCCS(=O)(=O)Nc1cccc(-c2cn(-c3ccc(N4CCN(CC5CCN(c6ccc([C@H]7CCC(=O)NC7=O)cc6)CC5)CC4)cc3)nc2-c2ccncc2)c1F [Compound 16, N-{3-[1-(4-{4-[(1-{4-[(3R)-2,6-dioxopiperidin-3-yl]phenyl}piperidin-4-yl)methyl]piperazin-1-yl}phenyl)-3-(pyridin-4-yl)-1H-pyrazol-4-yl]-2-fluorophenyl}propane-1-sulfonamide]	–	–	–	–	–	–	–	–	10 to 50 nM	> 70%	10 to 50 nM	> 70%	< 10 nM	30 to 70%	50 to 500 nM	30 to 70%
CCN(C)S(=O)(=O)Nc1cccc(-c2nc(C)sc2-c2ccnc(Nc3ccc(N4CCN(CC5CCN(c6ccc([C@H]7CCC(=O)NC7=O)cn6)CC5)CC4)cn3)n2)c1F [Compound 27, (3R)-3-{6-[4-({4-[6-({4-[4-(3-{[ethyl(methyl)sulfamoyl]amino}-2-fluorophenyl)-2-methyl-1,3-thiazol-5-yl]pyrimidin-2-yl}amino)pyridin-3-yl]piperazin-1-yl}methyl)piperidin-1-yl]pyridin-3-yl}piperidine-2,6-dione]	–	–	–	–	–	–	–	–	< 10 nM	> 70%	10 to 50 nM	> 70%	10 to 50 nM	30 to 70%	50 to 500 nM	30 to 70%
CCN(C)S(=O)(=O)Nc1cccc(-c2nc(C(C)(C)C)sc2-c2ccnc(Nc3ccc(N4CCN(CC5CCN(c6ccc([C@H]7CCC(=O)NC7=O)cn6)CC5)CC4)cn3)n2)c1F [Compound 29, (3R)-3-{6-[4-({4-[6-({4-[2-tert-butyl-4-(3-{[ethyl(methyl)sulfamoyl]amino}-2-fluorophenyl)-1,3-thiazol-5-yl]pyrimidin-2-yl}amino)pyridin-3-yl]piperazin-1-yl}methyl)piperidin-1-yl]pyridin-3-yl}piperidine-2,6-dione]	–	–	–	–	–	–	–	–	10 to 50 nM	> 70%	< 10 nM	> 70%	< 10 nM	30 to 70%	10 to 50 nM	30 to 70%
CCN(C)S(=O)(=O)Nc1cccc(-c2nc(C)sc2-c2ccnc(Nc3ccc(N4CCN(CC5CCN(c6ccc([C@H]7CCC(=O)NC7=O)cc6)CC5)CC4)cn3)n2)c1F [Compound 41, (3R)-3-{4-[4-({4-[6-({4-[4-(3-{[ethyl(methyl)sulfamoyl]amino}-2-fluorophenyl)-2-methyl-1,3-thiazol-5-yl]pyrimidin-2-yl}amino)pyridin-3-yl]piperazin-1-yl}methyl)piperidin-1-yl]phenyl}piperidine-2,6-dione]	–	–	–	–	–	–	–	–	< 10 nM	> 70%	50 to 500 nM	30 to 70%	10 to 50 nM	30 to 70%	10 to 50 nM	30 to 70%
